Test results published in US10561704B2, “Compositions and methods for treating neuropsychiatric disorders using an endothelin-B receptor agonist” (MIDWESTERN UNIVERSITY, priority 2013, dated 2020).
*1 amine or outer side, *2 acyl side, *3 side chain or, on linkers, in order; H or OH if unused. Where no end group is shown, it is not given here. Suc = O=C(CCC(=O)[*:2])[*:1]

Key:
[1] = test system: middle cerebral artery occluded rats; experiment: 7 day survival following focal cerebral ischemia (MCAO); format: in vivo
Procedure: FIG. 13: Effect of ETB receptor agonist, IRL-1620, in presence and absence of BQ788 on 7 day survival of rats undergoing either sham surgery or middle cerebral artery occlusion.
Effect of IRL-1620 on 7 day survival of rats following focal cerebral ischemia: Studies were also conducted to determine the effect of stimulating ETB receptors using a selective agonist, IRL-1620, in rats with middle cerebral artery occlusion (MCAO). […] However, MCAO rats in the vehicle treated group presented with 38% mortality by 7th day. […] Preliminary results and supporting literature have prompted the investigation of the mechanism involved in neuroprotective and neurorestorative effects of stimulating ETB receptors in rats with cerebral ischemia.

[2] = test system: middle cerebral artery occluded rats; experiment: Angiogenesis and neurogenesis markers (ETB, NeuN, BrdU, VEGF, NGF) following cerebral ischemia; format: in vivo
Procedure: FIG. 16: Effect of ETB receptor agonist, IRL-1620 (three doses of 5 μg/kg, i.v., at 2, 4 and 6 h post ischemia), and antagonist, BQ788 (1 mg/kg, i.v.), on neuronal nuclei (NeuN) post middle cerebral artery occlusion. (A) Representative image of the cortex of an IRL-1620-treated animal 1 week following MCAO, stained for the ETB receptor (green) and NeuN (red). Scale bar=100 μm. (B) Representative image of the striatum of an IRL-1620-treated animal 1 week following MCAO, stained for the ETB receptor (green) and NeuN (red). Scale bar=10 μm. (C) Number of neuronal nuclei per 100 μm^2 in the cortex, striatum, and subventricular zone of middle cerebral artery occluded rats at 24 h after infarct. *P<0.05 vs. sham. ^#P<0.01 vs. MCAO+vehicle. ^@P<0.0001 vs. MCAO+IRL-1620. (D) Number of neuronal nuclei per 100 μm^2 in the cortex, striatum, and subventricular zone of middle cerebral artery occluded rats at 1 week after infarct. Values are expressed as mean±SEM (n=5/group). *P<0.0001 vs. sham. ^#P<0.0001 vs. MCAO+vehicle. ^@P<0.0001 vs. MCAO+IRL-1620.
FIG. 17: Effect of ETB receptor agonist, IRL-1620 (3 doses of 5 μg/kg, i.v., at 2, 4 and 6 hours post ischemia), and antagonist, BQ788 (1 mg/kg, i.v.), on proliferating cells post middle cerebral artery occlusion. Representative image of the cortex of an IRL-1620-treated animal 1 week following MCAO depicting a cerebral blood vessel, stained for the ETB receptor (green) and BrdU (red). Scale bar=100 μm. […] Values are expressed as mean±SEM (n=5/group). *P<0.01 vs. sham. #P<0.0001 vs. MCAO+vehicle. @P<0.0001 vs. MCAO+IRL-1620.
FIG. 19: Effect of ETB receptor agonist, IRL-1620 (3 doses of 5 μg/kg, i.v., at 2, 4 and 6 hours post ischemia), and antagonist, BQ788 (1 mg/kg, i.v.), on vascular endothelial growth factor (VEGF) post middle cerebral artery occlusion. […] Values are expressed as mean±SEM (n=5/group). *P<0.01 vs. sham. #P<0.01 vs. MCAO+vehicle. @P<0.05 vs. MCAO+IRL-1620.
FIG. 21: Effect of ETB receptor agonist, IRL-1620 (3 doses of 5 μg/kg, i.v., at 2, 4 and 6 hours post ischemia), and antagonist, BQ788 (1 mg/kg, i.v.), on nerve growth factor (NGF) post middle cerebral artery occlusion. A. Representative image of the cortex of an IRL-1620-treated animal 1 week following MCAO, stained for the ETB receptor (green) and NGF (red). Scale bar=10 μm. B. Number of NGF+cells per 100 μm^2 in the cortex, striatum, and subventricular zone of middle cerebral artery occluded rats at 1 week after infarct. Values are expressed as mean±SEM (n=5/group). #P<0.0001 vs. MCAO+vehicle. @P<0.0001 vs. MCAO+IRL-1620.
Effect of IRL-1620 on angiogenesis and neurogenesis following cerebral ischemia in rats: Angiogenesis and neurogenesis are the driving forces for the neurovascular remodeling that is essential post-stroke to restore normal brain function (Hawkins and Davis, 2005). VEGF is an endogenous protein known for its ability to promote angiogenesis and enhance vascular permeability. Under hypoxic conditions such as cerebral ischemia, VEGF expression is induced in neurons, astrocytes and endothelial cells via hypoxia-inducible factor-1 (HIF-1) (Breier and Risau, 1996). Once expressed, VEGF initiates both direct and indirect neuroprotective actions, inhibiting apoptosis, stimulating neurogenesis and angiogenesis, increasing glucose uptake and activating antioxidants (Gora-Kupilas and Josko, 2005). It has been shown that intracerebroventricular (i.c.v.) administration of an ETB receptor agonist in normal rats stimulates production of VEGF and activates VEGF receptors in the brain, while, in cultured astrocytes, this agonist increases VEGF-A mRNA as well as BrdU incorporation (Koyama et al., 2012; Koyama et al., 2011). ETB receptor agonist, IRL-1620, has been shown in our previous studies, to provide significant neuroprotection at both 24 hours and 1 week following permanent cerebral ischemia. […]

Molecule | Mortality during 7 day observation [1] | Number of proliferating cells in the infarcted brain ([2]; 1 week after MCAO) | VEGF-positive vessels/30 μm brain slice ([2]; 1 week following MCAO) | ETB receptor expression in cortex, striatum and SVZ ([2]; 24 hours post occlusion) | Neuronal numbers in cortex, striatum and SVZ ([2]; 24 hours post occlusion) | Number of blood vessels labeled with VEGF ([2]; 24 hours post occlusion, vs vehicle treatment) | NGF-positive cells per 100 μm^2 ([2]; SVZ, 1 week after MCAO) | NGF-positive cells per 100 μm^2 ([2]; cortex, 1 week after MCAO) | NGF-positive cells per 100 μm^2 ([2]; striatum, 1 week after MCAO) | Effects of IRL-1620 treatment (neurovascular remodeling) ([2]; pretreatment with BQ-788)
Suc-Asp-Glu-Glu-Ala-Val-Tyr-Phe-Ala-His-Leu-Asp-Ile-Ile-Trp (Suc-DEEAVYFAHLDIIW) [IRL-1620] | no mortality | increased number | 11.33±2.13 | increased | preserved | enhanced | 3.05±0.38 per 100 μm^2 | 2.29±0.31 per 100 μm^2 | 2.08±0.26 per 100 μm^2 | –
CCCC[C@@H](NC(=O)[C@@H](Cc1cn(C(=O)OC)c2ccccc12)NC(=O)[C@H](CC(C)(C)C)NC(=O)N1[C@H](C)CCC[C@@H]1C)C(=O)O [BQ788, reference compound] | 25% | – | – | – | – | – | – | – | – | blocked
